Among the test systems are TK-10; T47D; UACC-62; M14; SK-MEL-5; DU-145; HCC 2998; NCI/ADR-RES; LOX IMVI; MDA-MB-435; PC-3; MDA-N; DLD-1; M19-MEL; SNB-78; HOP-18; XF498; KM-20L2; DMS-273; RXF 631.
Holding throughout (assay): DTP human tumour cell line panel, 48 h

SMILES strings stand for the structures.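 Values below derive from 48-hour exposures of cells grown in 96-well plates, with endpoints linearly interpolated between the two concentrations bracketing the appropriate inhibition level. GI50 marks 50% less growth.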 Activity calls are given as the source filed them. Cut-off read from the data, not from the text of the source: active = GI50 up to about 1.1 µM and inactive = higher.

With `O=c1ccn(COC(COCc2ccccc2)COCc2ccccc2)c(=O)[nH]1`, the GI50 in the assay on TK-10 was > 100 µM (inactive); in the assay with T47D, 64.1 µM (inactive); in the assay with UACC-62, 86.9 µM (inactive); with M14 it was > 100 µM (inactive); in the assay with SK-MEL-5 it was 76.4 µM (inactive); in the assay with DU-145, > 100 µM (inactive). The GI50 with HCC 2998 was > 100 µM (inactive); in the assay with NCI/ADR-RES, > 100 µM (inactive); in the assay on LOX IMVI it was > 100 µM (inactive); with MDA-MB-435, > 100 µM (inactive); in the assay on PC-3, 77.6 µM (inactive); in the assay on MDA-N it was > 100 µM (inactive).

As to `O=C(O)C1CCCCN1c1ccccc1[N+](=O)[O-]` (stereo not given), the GI50 in the assay with TK-10, with DLD-1, with UACC-62, in the assay on M19-MEL, in the assay with M14 and in the assay with SNB-78 was > 100 µM (inactive) throughout. For the same molecule, the GI50 in the assay on SK-MEL-5, in the assay on HCC 2998, with LOX IMVI, with HOP-18, with XF498 and in the assay on KM-20L2 was > 100 µM (inactive) in each case. Moreover, the GI50 in the assay with DMS-273 was > 100 µM (inactive).

As to `O=C(/C=N/c1ccccc1S)c1ccco1`, the GI50 is 19.1 µM (inactive) in the assay with TK-10; 6.56 µM (inactive) in the assay with DLD-1; 15.5 µM (inactive) in the assay on UACC-62; 12.2 µM (inactive) in the assay on M19-MEL; 16.9 µM (inactive) in the assay with SNB-78; 17.3 µM (inactive) in the assay with SK-MEL-5. In addition, the figures for the GI50 in the assay with HOP-18, in the assay on KM-20L2 and with DMS-273 were 17.7 µM (inactive), 14.5 µM (inactive) and 11.2 µM (inactive), respectively.

On to `CCOC(=O)NC(Nc1ncccn1)(C(=O)OCC)C(F)(F)F` (stereo not given), for which the GI50 with TK-10 was > 100 µM (inactive); in the assay with T47D, 56 µM (inactive); with UACC-62 it was 63.4 µM (inactive); in the assay with M14 it was > 100 µM (inactive); with SK-MEL-5 it was > 100 µM (inactive); with DU-145 it was > 100 µM (inactive). For the same molecule, the GI50 in the assay with HCC 2998, in the assay with NCI/ADR-RES, in the assay with LOX IMVI, in the assay on MDA-MB-435, in the assay on PC-3 and in the assay with MDA-N was > 100 µM (inactive) throughout.

`CCC(C(=O)O)c1ccc(OC)cc1` (stereo not given): the GI50 in the assay on TK-10, with DLD-1, in the assay on RXF 631, with UACC-62, with M19-MEL and in the assay with M14 was > 100 µM (inactive) each time. Moreover, the GI50 in the assay with SNB-78, in the assay on SK-MEL-5, in the assay on HCC 2998, in the assay with LOX IMVI, in the assay on XF498 and with KM-20L2 was > 100 µM (inactive) throughout. The GI50 with DMS-273 is > 100 µM (inactive).

As to `O=C=C=P(c1ccccc1)(c1ccccc1)c1ccccc1`, the GI50 was 3.46 µM (inactive) in the assay on TK-10; > 100 µM (inactive) in the assay on DLD-1; 62.1 µM (inactive) with RXF 631; 27.1 µM (inactive) with M19-MEL; 80.5 µM (inactive) in the assay on M14; 39.7 µM (inactive) in the assay on SNB-78. Further, the GI50 is 21.5 µM (inactive) with SK-MEL-5; 61.5 µM (inactive) with HCC 2998; 40.1 µM (inactive) in the assay with LOX IMVI; 21.6 µM (inactive) in the assay on HOP-18; 29 µM (inactive) in the assay on XF498; 36.9 µM (inactive) in the assay with DMS-273.

Consider `O=c1[nH]c(-c2ccc(Cl)cc2)cc2ccsc12`, for which the GI50 in the assay with TK-10 is 2.82 µM (inactive); in the assay on T47D, 2.37 µM (inactive); in the assay with UACC-62 it was 8.22 µM (inactive); in the assay with M14, 3.48 µM (inactive); in the assay on SK-MEL-5, 4.41 µM (inactive); in the assay with DU-145, 2.05 µM (inactive). Besides, the GI50 in the assay on HCC 2998 was 2.31 µM (inactive); with NCI/ADR-RES, 3.56 µM (inactive); in the assay on LOX IMVI it was 4.36 µM (inactive); with MDA-MB-435, 0.453 µM (active); in the assay with PC-3, 8.83 µM (inactive); in the assay on MDA-N, 1.58 µM (inactive).

Take `COC(=O)C1C(C)N1C` (stereo not given): the GI50 in the assay on TK-10, with DLD-1, in the assay with RXF 631, in the assay on UACC-62, with M19-MEL and with M14 was > 100 µM (inactive) each time. Moreover, the GI50 in the assay on SNB-78 is > 100 µM (inactive); in the assay with SK-MEL-5, > 100 µM (inactive); in the assay with HCC 2998, > 100 µM (inactive); in the assay on LOX IMVI it was > 100 µM (inactive); in the assay on XF498, 64.3 µM (inactive); in the assay on DMS-273, > 100 µM (inactive).

As a reminder, the GI50 is the concentration at which growth is held to half of that of the control.

Source of the values: ChEMBL document CHEMBL1201862, “PubChem BioAssay data set” (2004).
